{"source": "patent US20230398130A1", "about": "“METHODS AND COMPOSITIONS FOR DIFFERENTIATING STEM CELLS” (Massachusetts Institute of Technology, priority 2020, published 2023)", "key": {"ISC-enriched organoids [1]": {"test_system": "ISC-enriched organoids", "assay": "Primary screen, 384-well 2.5-D organoid differentiation (ENR+CD, 6 days): basal lysozyme secretion (LYZ.NS)", "format": "cell-based, murine", "conditions": "for Dose.FC.LYZ.NS / Z.LYZ.NS / Z.LYZ.NS (standard z score) / Dose.FC.LYZ.NS (log 2 fold change): primary screen; for Dose.FC.LYZ.NS: FC vs plate median; for Dose.FC.LYZ.NS (log 2 fold change): vs plate median", "excerpt": "(§1) High-throughput screening."}, "ISC-enriched organoids [2]": {"test_system": "ISC-enriched organoids", "assay": "Primary screen, 384-well 2.5-D organoid differentiation (ENR+CD, 6 days): carbachol-induced lysozyme secretion (LYZ.S)", "format": "cell-based, murine", "conditions": "for Dose.FC.LYZ.S / Dose.FC.LYZ.S (log 2 fold change): primary screen; for Dose.FC.LYZ.S: FC vs plate median; for Dose.FC.LYZ.S (log 2 fold change): vs plate median", "excerpt": "as §1"}, "ISC-enriched organoids [3]": {"test_system": "ISC-enriched organoids", "assay": "Primary screen, 384-well 2.5-D organoid differentiation (ENR+CD, 6 days, Target Selective Inhibitor Library, vs whole-plate median): ATP (CellTiter-Glo 3D, CTG)", "conditions": "for Dose.FC.CTG / Z.CTG / Z.CTG (standard z score) / Dose.FC.CTG (log 2 fold change): primary screen; for Dose.FC.CTG: FC vs plate median; for Dose.FC.CTG (log 2 fold change): vs plate median"}, "[4]": {"conditions": "Dose 10.00 uM, standard z score"}, "[5]": {"conditions": "dose 0.08 uM (1st of 4 lines per treatment; dose not printed in this part)"}, "[6]": {"conditions": "dose 0.40 uM (2nd of 4 lines per treatment; dose not printed in this part)"}, "[7]": {"conditions": "dose 2.00 uM (3rd of 4 lines per treatment; dose not printed in this part)"}, "[8]": {"conditions": "dose 10.00 uM (4th of 4 lines per treatment; dose not printed in this part)"}, "[9]": {"conditions": "dose 0.08 uM, standard z score of FC"}, "[10]": {"conditions": "dose 0.40 uM, standard z score of FC"}, "[11]": {"conditions": "dose 2.00 uM, standard z score of FC"}, "[12]": {"conditions": "dose 10.00 uM, standard z score of FC"}}, "data": [{"smiles": "Cl.O=C(O)Cc1cccc(OCCCN(Cc2cccc(C(F)(F)F)c2Cl)CC(c2ccccc2)c2ccccc2)c1", "note": "[GW3965 HCl]", "values": [{"measurement": "Dose.FC.LYZ.NS", "setting": "ISC-enriched organoids [1]; Dose 0.08 uM", "result": 0.059, "unit": "log 2 fold change"}, {"measurement": "Z.LYZ.NS", "setting": "ISC-enriched organoids [1]; Dose 0.08 uM, standard z score", "result": 0.516}, {"measurement": "Dose.FC.LYZ.NS", "setting": "ISC-enriched organoids [1]; Dose 0.40 uM", "result": 0.002, "unit": "log 2 fold change"}, {"measurement": "Z.LYZ.NS", "setting": "ISC-enriched organoids [1]; Dose 0.40 uM, standard z score", "result": 0.013}, {"measurement": "Dose.FC.LYZ.NS", "setting": "ISC-enriched organoids [1]; Dose 2.00 uM", "result": 0.077, "unit": "log 2 fold change"}, {"measurement": "Z.LYZ.NS", "setting": "ISC-enriched organoids [1]; Dose 2.00 uM, standard z score", "result": 0.673}, {"measurement": "Dose.FC.LYZ.NS", "setting": "ISC-enriched organoids [1]; Dose 10.00 uM", "result": "−0.009", "unit": "log 2 fold change"}, {"measurement": "Z.LYZ.NS", "setting": "ISC-enriched organoids [1]; [4]", "result": "−0.080"}, {"measurement": "Dose.FC.LYZ.S", "setting": "ISC-enriched organoids [2]; Dose 0.08 uM", "result": 0.091, "unit": "log 2 fold change"}, {"measurement": "Dose.FC.LYZ.S", "setting": "ISC-enriched organoids [2]; Dose 0.40 uM", "result": 0.074, "unit": "log 2 fold change"}, {"measurement": "Dose.FC.LYZ.S", "setting": "ISC-enriched organoids [2]; Dose 2.00 uM", "result": 0.179, "unit": "log 2 fold change"}, {"measurement": "Dose.FC.LYZ.S", "setting": "ISC-enriched organoids [2]; Dose 10.00 uM", "result": "−0.047", "unit": "log 2 fold change"}, {"measurement": "Dose.FC.CTG", "setting": "ISC-enriched organoids [3]; Dose 0.08 uM", "result": 0.138, "unit": "log 2 fold change"}, {"measurement": "Z.CTG", "setting": "ISC-enriched organoids [3]; Dose 0.08 uM, standard z score", "result": 0.330}, {"measurement": "Dose.FC.CTG", "setting": "ISC-enriched organoids [3]; Dose 0.40 uM", "result": 0.201, "unit": "log 2 fold change"}, {"measurement": "Z.CTG", "setting": "ISC-enriched organoids [3]; Dose 0.40 uM, standard z score", "result": 0.481}, {"measurement": "Dose.FC.CTG", "setting": "ISC-enriched organoids [3]; Dose 2.00 uM", "result": 0.229, "unit": "log 2 fold change"}, {"measurement": "Z.CTG", "setting": "ISC-enriched organoids [3]; Dose 2.00 uM, standard z score", "result": 0.546}, {"measurement": "Dose.FC.CTG", "setting": "ISC-enriched organoids [3]; Dose 10.00 uM", "result": "−0.078", "unit": "log 2 fold change"}, {"measurement": "Z.CTG", "setting": "ISC-enriched organoids [3]; [4]", "result": "−0.186"}]}, {"smiles": "O=C(O)c1ccc(N2C(=O)/C(=C\\c3ccc(-c4ccc([N+](=O)[O-])cc4)o3)C=C2c2ccccc2)cc1", "note": "[4E1RCat]", "values": [{"measurement": "SSMD.LYZ.NS_Rep (strictly standardized mean difference)", "setting": "ISC-enriched organoids [1]; [5]", "result": 0.883}, {"measurement": "SSMD.LYZ.NS_Rep (strictly standardized mean difference)", "setting": "ISC-enriched organoids [1]; [6]", "result": "−0.121"}, {"measurement": "SSMD.LYZ.NS_Rep (strictly standardized mean difference)", "setting": "ISC-enriched organoids [1]; [7]", "result": 0.437}, {"measurement": "SSMD.LYZ.NS_Rep (strictly standardized mean difference)", "setting": "ISC-enriched organoids [1]; [8]", "result": 0.053}, {"measurement": "Dose.FC.LYZ.NS", "setting": "ISC-enriched organoids [1]; dose 0.08 uM, ENR+CD 6 days", "result": 0.100, "unit": "log 2 fold change"}, {"measurement": "Z.LYZ.NS", "setting": "ISC-enriched organoids [1]; [9]", "result": 0.874}, {"measurement": "Dose.FC.LYZ.NS", "setting": "ISC-enriched organoids [1]; dose 0.40 uM, ENR+CD 6 days", "result": "−0.018", "unit": "log 2 fold change"}, {"measurement": "Z.LYZ.NS", "setting": "ISC-enriched organoids [1]; [10]", "result": "−0.154"}, {"measurement": "Dose.FC.LYZ.NS", "setting": "ISC-enriched organoids [1]; dose 2.00 uM, ENR+CD 6 days", "result": 0.151, "unit": "log 2 fold change"}, {"measurement": "Z.LYZ.NS", "setting": "ISC-enriched organoids [1]; [11]", "result": 1.316}, {"measurement": "Dose.FC.LYZ.NS", "setting": "ISC-enriched organoids [1]; dose 10.00 uM, ENR+CD 6 days", "result": 0.007, "unit": "log 2 fold change"}, {"measurement": "Z.LYZ.NS", "setting": "ISC-enriched organoids [1]; [12]", "result": 0.062}, {"measurement": "SSMD.LYZ.S_Rep (strictly standardized mean difference)", "setting": "ISC-enriched organoids [2]; [5]", "result": 0.712}, {"measurement": "Z.LYZ.S (standard z score)", "setting": "ISC-enriched organoids [2]; [5]", "result": 0.690}, {"measurement": "SSMD.LYZ.S_Rep (strictly standardized mean difference)", "setting": "ISC-enriched organoids [2]; [6]", "result": 0.185}, {"measurement": "Z.LYZ.S (standard z score)", "setting": "ISC-enriched organoids [2]; [6]", "result": 0.247}, {"measurement": "SSMD.LYZ.S_Rep (strictly standardized mean difference)", "setting": "ISC-enriched organoids [2]; [7]", "result": 0.311}, {"measurement": "Z.LYZ.S (standard z score)", "setting": "ISC-enriched organoids [2]; [7]", "result": 0.316}, {"measurement": "SSMD.LYZ.S_Rep (strictly standardized mean difference)", "setting": "ISC-enriched organoids [2]; [8]", "result": 0.321}, {"measurement": "Z.LYZ.S (standard z score)", "setting": "ISC-enriched organoids [2]; [8]", "result": 0.530}, {"measurement": "Dose.FC.LYZ.S", "setting": "ISC-enriched organoids [2]; dose 0.08 uM, ENR+CD 6 days", "result": 0.107, "unit": "log 2 fold change"}, {"measurement": "Dose.FC.LYZ.S", "setting": "ISC-enriched organoids [2]; dose 0.40 uM, ENR+CD 6 days", "result": 0.038, "unit": "log 2 fold change"}, {"measurement": "Dose.FC.LYZ.S", "setting": "ISC-enriched organoids [2]; dose 2.00 uM, ENR+CD 6 days", "result": 0.049, "unit": "log 2 fold change"}, {"measurement": "Dose.FC.LYZ.S", "setting": "ISC-enriched organoids [2]; dose 10.00 uM, ENR+CD 6 days", "result": 0.082, "unit": "log 2 fold change"}, {"measurement": "SSMD.CTG_Rep (strictly standardized mean difference)", "setting": "ISC-enriched organoids [3]; [5]", "result": 0.790}, {"measurement": "SSMD.CTG_Rep (strictly standardized mean difference)", "setting": "ISC-enriched organoids [3]; [6]", "result": 0.559}, {"measurement": "SSMD.CTG_Rep (strictly standardized mean difference)", "setting": "ISC-enriched organoids [3]; [7]", "result": 0.022}, {"measurement": "SSMD.CTG_Rep (strictly standardized mean difference)", "setting": "ISC-enriched organoids [3]; [8]", "result": "−0.026"}, {"measurement": "Dose.FC.CTG", "setting": "ISC-enriched organoids [3]; dose 0.08 uM, ENR+CD 6 days", "result": 0.246, "unit": "log 2 fold change"}, {"measurement": "Z.CTG", "setting": "ISC-enriched organoids [3]; [9]", "result": 0.587}, {"measurement": "Dose.FC.CTG", "setting": "ISC-enriched organoids [3]; dose 0.40 uM, ENR+CD 6 days", "result": 0.362, "unit": "log 2 fold change"}, {"measurement": "Z.CTG", "setting": "ISC-enriched organoids [3]; [10]", "result": 0.864}, {"measurement": "Dose.FC.CTG", "setting": "ISC-enriched organoids [3]; dose 2.00 uM, ENR+CD 6 days", "result": 0.006, "unit": "log 2 fold change"}, {"measurement": "Z.CTG", "setting": "ISC-enriched organoids [3]; [11]", "result": 0.015}, {"measurement": "Dose.FC.CTG", "setting": "ISC-enriched organoids [3]; dose 10.00 uM, ENR+CD 6 days", "result": "−0.011", "unit": "log 2 fold change"}, {"measurement": "Z.CTG", "setting": "ISC-enriched organoids [3]; [12]", "result": "−0.026"}]}, {"smiles": "COc1c(C)c(C(=O)c2ccc(N)c(C(=O)[O-])c2)n2ccccc12.[Na+]", "note": "[SSR128129E]", "values": [{"measurement": "Z.LYZ.NS (standard z score)", "setting": "ISC-enriched organoids [1]; Dose 0.08 uM", "result": 0.807}, {"measurement": "Dose.FC.LYZ.NS (log 2 fold change)", "setting": "ISC-enriched organoids [1]; Dose 0.08 uM", "result": 0.093}, {"measurement": "Z.LYZ.NS (standard z score)", "setting": "ISC-enriched organoids [1]; Dose 0.40 uM", "result": 0.339}, {"measurement": "Dose.FC.LYZ.NS (log 2 fold change)", "setting": "ISC-enriched organoids [1]; Dose 0.40 uM", "result": 0.039}, {"measurement": "Z.LYZ.NS (standard z score)", "setting": "ISC-enriched organoids [1]; Dose 2.00 uM", "result": 0.257}, {"measurement": "Dose.FC.LYZ.NS (log 2 fold change)", "setting": "ISC-enriched organoids [1]; Dose 2.00 uM", "result": 0.030}, {"measurement": "Z.LYZ.NS (standard z score)", "setting": "ISC-enriched organoids [1]; Dose 10.00 uM", "result": "−0.850"}, {"measurement": "Dose.FC.LYZ.NS (log 2 fold change)", "setting": "ISC-enriched organoids [1]; Dose 10.00 uM", "result": "−0.098"}, {"measurement": "Dose.FC.LYZ.S (log 2 fold change)", "setting": "ISC-enriched organoids [2]; Dose 0.08 uM", "result": 0.086}, {"measurement": "Dose.FC.LYZ.S (log 2 fold change)", "setting": "ISC-enriched organoids [2]; Dose 0.40 uM", "result": 0.122}, {"measurement": "Dose.FC.LYZ.S (log 2 fold change)", "setting": "ISC-enriched organoids [2]; Dose 2.00 uM", "result": 0.023}, {"measurement": "Dose.FC.LYZ.S (log 2 fold change)", "setting": "ISC-enriched organoids [2]; Dose 10.00 uM", "result": "−0.095"}, {"measurement": "Z.CTG (standard z score)", "setting": "ISC-enriched organoids [3]; Dose 0.08 uM", "result": 0.210}, {"measurement": "Dose.FC.CTG (log 2 fold change)", "setting": "ISC-enriched organoids [3]; Dose 0.08 uM", "result": 0.088}, {"measurement": "Z.CTG (standard z score)", "setting": "ISC-enriched organoids [3]; Dose 0.40 uM", "result": 0.545}, {"measurement": "Dose.FC.CTG (log 2 fold change)", "setting": "ISC-enriched organoids [3]; Dose 0.40 uM", "result": 0.228}, {"measurement": "Z.CTG (standard z score)", "setting": "ISC-enriched organoids [3]; Dose 2.00 uM", "result": 0.291}, {"measurement": "Dose.FC.CTG (log 2 fold change)", "setting": "ISC-enriched organoids [3]; Dose 2.00 uM", "result": 0.122}, {"measurement": "Z.CTG (standard z score)", "setting": "ISC-enriched organoids [3]; Dose 10.00 uM", "result": "−0.063"}, {"measurement": "Dose.FC.CTG (log 2 fold change)", "setting": "ISC-enriched organoids [3]; Dose 10.00 uM", "result": "−0.026"}]}]}
